What was measured:
[1] = Fluorescence response to NO in buffered aqueous solution; settings: for fluorescence on reaction with NO-releasing agent SNAP: pH 7.0 (50 mM PIPES, 100 mM KCl), 30 min time interval
Procedure: FIG. 5 depicts the fluorescence response of Cu(FL5) to NO. Fluorescence emission spectra (λex=503 nm) of a deoxygenated 1 μM solution of Cu(FL5) in buffered solution (50 mM PIPES, pH 7.0, 100 mM KCl) before (dashed line), immediately, 1, 2 and 5 min after (solid lines) admission of 1300 equiv of NO (g) at 37° C.
The fluorescence of a 1 μM FL5 solution was diminished by 18±3% upon introduction of an equimolar quantity of CuCl2 at 37° C. Addition of excess NO to a buffered aqueous Cu(FL5) solution led to an immediate 11.2±1.5-fold increase in fluorescence (FIG. 5). […] The lower detection limit for NO is 5 nM.
A commercially available NO probe, DAF-2 (o-diaminofluorescein), was used for comparison with Cu(FL5). The fluorescence of DAF-2 is unchanged in the presence of NO and the absence of O2 over a period of 1 h.
As depicted in FIG. 4, NO detection by Cu(FL5) occurs, formally, by nitric oxide-induced reduction of Cu(II) to Cu(I), forming NO^+, which nitrosates the ligand with concomitant dissociation from copper and fluorescence turn-on. The mechanism of turn-on emission of Cu(FL5) by NO was investigated by EPR, UV-vis, NMR and fluorescence spectroscopy and by liquid chromatography-mass spectrometry (LC-MS, low resolution MS).

[2] = system: SK-N-SH human neuroblastoma cells; assay: Detection of NO produced by cNOS in SK-N-SH cells (fluorescence imaging); type: cell-based
Procedure: FIG. 7 illustrates Cu(FL5) detection of NO produced by cNOS. (a) NO detection in SK-N-SH cells by Cu(FL5). Left to right: 25 min incubation of Cu(FL5) (1 μM) and 5, 10, 15, 25 min after co-treatment of Cu(FL5) (1 μM) and 17β-estradiol (100 nM). Images were taken with a Nikon Eclipse TS100 microscope after removing the DMEM media and washing the cells with PBS. Top: fluorescence images; bottom: phase contrast images. (b) Fluorescence intensity (F(t)/FCu(FL5)) from a was plotted against incubation time. (c) NO production with or without of L-NNA. Right: NO detection in cells after 10 min co-incubation of Cu(FL5) (1 μM) and 17β-estradiol (100 nM). Left: NO detection in cells pre-treated with L-NNA for 1 h before addition of Cu(FL5) and 17β-estradiol.
We investigated the ability of Cu(FL5) to detect NO produced in SK-N-SH human neuroblastoma cells under physiological conditions, since constitutive NO synthase (“cNOS”) in this cell line can be activated by estrogen to produce NO. Estrogen administration leads to an increase in the cytosolic Ca(II) concentration that alters the structure of calmodulin, which in turn activates cNOS. The NO-dependent fluorescence response, monitored after simultaneous administration of 17β-estradiol (100 nM) and Cu(FL5) (1 μM) to the cells, was completed within 5 min with a 4.0±0.6-fold increase in fluorescence (FIGS. 5a and b). […] As another control, HeLa cells were co-treated with 17β-estradiol (100 nM) and Cu(FL5) (1 μM).
Raw 264.7, SK-N-SH, and HeLa cells were purchased from the American Type Culture Collection (ATCC). All three cell lines were maintained in Dulbecco's modified Eagles' media (DMEM) (GibcoBRL) containing 10% (v/v) heat-inactivated fetal bovine serum (FBS) (HyClone), 1 mM sodium pyruvate (Sigma), 100 units/ml penicillin, 100 μg/ml streptomycin (Invitrogen), and 0.1 mM nonessential amino acid solution for minimal essential medium (Sigma). All cells were grown at 37° C. in a humidified atmosphere of 10% CO2. A nitrite assay was performed with Griess reagents (Promega) on Raw 264.7 cells grown in DMEM free of phenol red. Calcium sensor fluo-4 AM was purchased from Invitrogen. MTT [3-(4,5-dimethylthiazol-2-yl)-2,5-diphenyltetrazolium bromide] (Sigma-Aldrich) assay was described in Supplementary information. The expression of iNOS in Raw 264.7 cells was analyzed by Western blot on the extracts of cells stimulated by LPS and INF-γ. The protein was silenced by short hairpin RNA-induced RNAi and the resulting cell lines were used in fluorescence imaging by Cu(FL5).

[3] = system: Raw 264.7 murine macrophage cells; assay: Detection of NO produced by iNOS in Raw 264.7 cells (fluorescence imaging); type: cell-based
Procedure: FIG. 8 illustrates Cu(FL5) detection of NO produced by iNOS. (a) NO detection in Raw 264.7 macrophage cells by Cu(FL5). Left to right: Cu(FL5) (1 μM) incubation with cells for 12 h, and 2, 4, 6, 8 h after addition of Cu(FL5) into cells that were pre-stimulated for 4 h with LPS (500 ng mL^−1) and IFN-γ (250 U mL^−1). The times depicted in the figure are the total incubation times with Cu(FL5). Images were taken immediately after removing the media and washing the cells three times with PBS. The instrument used was a Zeiss Axiovert 200M inverted epifluorescence microscope with differential interference contrast (DIC). Top: fluorescence images; bottom: DIC images. (b) Silencing of iNOS by RNAi in Raw 264.7 cells. A plasmid expressing shRNA was constructed to target the mRNA of iNOS. It was transfected into cells. The plasmid vector without insert for RNAi was transfected to establish a control cell line. The expression of iNOS in these two cell lines after stimulated by LPS and IFN-γ for 12 h was investigated by Western blot on the whole cell extracts with antibodies against the protein and actin, which served as loading control (lane 1: cells with control plasmid vector, lane 2: cells with plasmid expressing shRNA for iNOS). (c) NO detection in Raw 264.7 cells with iNOS silenced by RNAi. The two lines in (b) were treated with LPS and IFN-γ for 4 h before 8 h of incubation with Cu(FL5).
In macrophages, nitric oxide is produced by inducible NO synthases (“iNOS”). […] This method colorimetrically determines the concentration of NO2^− resulting from NO oxidation in the extracellular space. Fluorescence detection of NO production by stimulated macrophage cells was also achieved by incubation of the extracellular fluid with DAN and DAFs. These dyes improved the sensitivity of Griess assay, but were unable to reveal NO production inside cells with spatial and temporal fidelity. The present Cu(FL5) construct, however, readily detects NO produced in activated Raw 264.7 cells by fluorescence turn-on. Macrophage cells were incubated with LPS (500 ng/mL) and IFN-γ (250 U/mL) for 4 h, after which 1 μM Cu(FL5) was applied. The fluorescence response was monitored at 2 h intervals by microscopy (FIG. 6a).
To investigate further the origin of fluorescence detected by Cu(FL5), iNOS was silenced in Raw 264.7 cells by short hairpin RNA (shRNA)-induced RNA interference (RNAi) (FIG. 6b).
Raw 264.7, SK-N-SH, and HeLa cells were purchased from the American Type Culture Collection (ATCC). […] The expression of iNOS in Raw 264.7 cells was analyzed by Western blot on the extracts of cells stimulated by LPS and INF-γ. The protein was silenced by short hairpin RNA-induced RNAi and the resulting cell lines were used in fluorescence imaging by Cu(FL5).

Row | Compound | fluorescence response to NO under both anaerobic and aerobic conditions [1] | lower detection limit for NO [1] | increase in fluorescence upon addition of excess NO ([1]; buffered aqueous solution, immediate) | increase in fluorescence upon addition of NO in the presence of excess EDTA ([1]; excess EDTA chelating Cu(II)) | fluorescence on reaction with NO-releasing agent SNAP [1] | fluorescence on reaction with NO-releasing agent SNAP ([1]; listed as Cu(II)(FL5)) | increase in fluorescence in SK-N-SH cells ([2]; 17β-estradiol (100 nM) and Cu(FL5) (1 μM) administered simultaneously) | time to complete fluorescence response in SK-N-SH cells ([2]; 17β-estradiol (100 nM), probe 1 μM) | fluorescence response in presence of cNOS inhibitor L-NNA ([2]; 17β-estradiol-stimulated SK-N-SH cells) | fluorescence enhancement in living cells, both cNOS and iNOS ([2]; both cell lines (Raw 264.7 and SK-N-SH)) | brightness of NO visualization compared with DAF-2 DA ([2]; estradiol-stimulated neuroblastoma cells) | average fluorescence in activated Raw 264.7 cells ([3]; LPS (500 ng/mL) and IFN-γ (250 U/mL) 4 h, then 1 μM Cu(FL5), monitored at 2 h intervals) | fluorescence response in Raw 264.7 cells with iNOS silenced by shRNA vs plasmid vector only ([3]; stimulated by LPS and IFN-γ) | fluorescence response in stimulated Raw 264.7 cells in presence of iNOS inhibitor L-NMA ([3]; vs absence of L-NMA) | increase in fluorescence when treated with excess NO over 30 min ([1]; control: no Cu(II), over 30 min) | fluorescence in stimulated SK-N-SH cells in the absence of Cu(II) ion ([2]; over a period of 25 min) | turn-on fluorescence emission in stimulated Raw 264.7 cells without Cu(II) ion ([3]; LPS and IFN-γ, 12 h incubation period)
1 | Cc1ccc2cccc(NCc3c([O][Cu][Cl])ccc4c(-c5ccccc5C(=O)O)c5cc(Cl)c(=O)cc-5oc34)c2n1 [Cu(FL5)] | immediate fluorescence response | 5 nM | 11.2±1.5 fold | 1.3±0.2 fold | enhanced | turn-on fluorescence | 4.0±0.6 fold | ≤ 5 min | notably weaker fluorescence response | > 4 fold | brighter fluorescence than DAF-2 DA | slowly increased over 12 h | much weaker fluorescence response | notably weaker fluorescence response |  |  | 
2 | Cc1ccc2cccc(NCc3c(O)ccc4c(-c5ccccc5C(=O)O)c5cc(Cl)c(=O)cc-5oc34)c2n1 [FL5, 2-{2-chloro-6-hydroxy-5-[(2-methyl-quinolin-8-ylamino)-methyl]-3-oxo-3H-xanthen-9-yl}-benzoic acid] |  |  |  |  |  |  |  |  |  |  |  |  |  |  | 1.5±0.2 fold | no fluorescence increase | not observed

From patent publication US7494821B2, “Fluorescein based sensors for tracking nitric oxide in live cells” (Massachusetts Institute of Technology, priority 2005, dated 2009)
